In general, IC50 refers to the concentration needed to halve the response being measured. A high value points to a need for much substance.

This passage reports IC50 results from ChEMBL document CHEMBL1129164, “Molecular design, chemical synthesis and biological studies of novel enediynes related to dynemicin a” (Bioorg Med Chem Lett, 1996).

Type in all cases: functional, cell-based
Assay [1] concerns HepG2. As to the kind of experiment: In vitro growth inhibition of Hep G2 ([…] line) human tumor cells.
The subject of assay [2] is COLO 205. The assay can be described thus: In vitro growth inhibition of COLO 205 (colon cell line) human tumor cells.
Assay [3] has as its system MOLT-4. The assay can be described thus: In vitro growth inhibition of Molt-4 (leukemia cell line) human tumor cells.
In assay [4] the test system is SK-BR-3. The assay can be described thus: In vitro growth inhibition of SK-BR-3 (breast cancer cell line) human tumor cells.

≈ marks a conversion by molar mass, not a printed value.

For the compound `CCOC(=O)N1c2ccccc2[C@@H]2O[C@@H]2C1C#Cc1ccccc1C#CCS(=O)(=O)c1ccccc1` (stereo partly drawn), the IC50 in assay [1] was found to be 8.91 µg/mL (≈ 17.9 µM); in assay [2] it was 9.59 µg/mL (≈ 19.3 µM); in assay [3], 4.64 µg/mL (≈ 9.33 µM); in assay [4], 9.23 µg/mL (≈ 18.6 µM).
Consider `CCOC(=O)N1c2ccccc2C(=O)CC1C#C/C=C\C#CCS(=O)(=O)c1ccccc1` (stereo not drawn), for which the IC50 in assay [1] was found to be 50.2 µg/mL (≈ 112 µM); in assay [2] it was 53 µg/mL (≈ 119 µM); in assay [3], 5.63 µg/mL (≈ 12.6 µM); in assay [4], 43.9 µg/mL (≈ 98 µM).
`CCOC(=O)N1c2ccccc2[C@@H](O)[C@H](O)C1C#C/C=C\C#CCS(=O)(=O)c1ccccc1` (stereo partly drawn): the IC50 in assay [1] worked out at 57.8 µg/mL (≈ 124 µM); in assay [2] it was 49.7 µg/mL (≈ 107 µM); in assay [3] it was 10.2 µg/mL (≈ 21.9 µM); in assay [4], 46.7 µg/mL (≈ 100 µM).
As for `CCOC(=O)N1c2ccccc2[C@@H](S(=O)(=O)c2ccccc2)[C@H](O)C1C#Cc1ccccc1C#CCS(=O)(=O)c1ccccc1` (stereo partly drawn), the IC50 is 3.75 µg/mL (≈ 5.86 µM) in assay [1], 5.33 µg/mL (≈ 8.33 µM) in assay [2], 0.73 µg/mL (≈ 1.14 µM) in assay [3] and 6.26 µg/mL (≈ 9.79 µM) in assay [4].
`CCOC(=O)N1c2ccccc2[C@@H]2O[C@@H]2C1C#C/C=C\C#CCS(=O)(=O)c1ccccc1` (stereo partly drawn): the 50% inhibitory concentration (IC50) in assay [1] came to 9.01 µg/mL (≈ 20.1 µM); in assay [2], 26 µg/mL (≈ 58 µM); in assay [3] it was 5.5 µg/mL (≈ 12.3 µM); in assay [4], 19.5 µg/mL (≈ 43.5 µM).
Turning to `C#CC1[C@H]2O[C@H]2c2ccccc2N1C(=O)OCC` (stereo partly drawn), the IC50 was above 100 µg/mL in assay [1], above 100 µg/mL in assay [2], 66.5 µg/mL (≈ 274 µM) in assay [3] and above 100 µg/mL in assay [4].
Consider `CCOC(=O)N1c2ccccc2C(=O)CC1C#Cc1ccccc1C#CCS(=O)(=O)c1ccccc1` (stereo not drawn), for which the IC50 in assay [1] was 70 µg/mL (≈ 141 µM); in assay [2], 50.1 µg/mL (≈ 101 µM); in assay [3], 7.26 µg/mL (≈ 14.6 µM); in assay [4] it was 53.6 µg/mL (≈ 108 µM).
